# Test results as given in patent US10509041B2, “Glucose derivative, and cell imaging method and imaging agent using said derivative” (HIROSAKI UNIVERSITY, priority 2014, dated 2019).
# Several values for one entry are separate records, joined by “and”; a condition that tells them apart may be missing. Identical values can stand only once.
# How the values were obtained:
# [1] = system: mouse insulinoma cells (MIN6); assay: Increase in fluorescence intensity (uptake) after administration of fluorescent glucose derivative to MIN6 cells, influence of cytochalasin B (CB) or phloretin (PHT), fluorescence microplate reader; assay type: cell-based; settings: 2-NBDG 200 μM, 5 minutes; CB 10 μM; MIN6 13 days of culture; average, two independent experiments
# Experimental: Increase in fluorescence intensity caused by the administration of CDG, and the influence of a glucose transporter (GLUT) inhibitor CB thereon were confirmed by targeting MIN6 cells.
# A 96-well clear-bottom plate having wells of 8 rows (A to H) and 12 columns (1 to 12) (μClear-PLATE, Greiner Bio-One, BLACK) was used in measurement. A culture solution containing MIN6 cells suspended at a density of 60×10^4 cells/mL was added dropwise at 10 μL/well to the central portion of the well, and then, the plate was left standing for 40 minutes in an incubator for fixation. The cells were cultured by the addition of a culture solution at 200 μL/well (6000 cells/well). For layout, the cells were seeded to wells B to H on the third column and wells A to G on the fifth column. Medium replacement was performed by replacing half the amount with a fresh one once every two days at 0 to 4 DIV (days in vitro) and every day at 5 DIV or later. […]
# CDG and 2-NBDG were each independently administered to the wells on the third and fifth columns using an 8-channel pipette such that these derivatives were alternately placed on the same plate. Before the administration, the autofluorescence of each well was measured in advance using a fluorescence microplate reader (Flex Station, Molecular Devices, LLC). […] The measurement was conducted at Bottom Read, Averaging 3, and Photomultiplier sensitivity high. […]
# [2] = system: mouse insulinoma cells (MIN6); assay: as above; assay type: cell-based; settings: 2-NBDG 200 μM, 5 minutes; PHT 150 μM; MIN6 13 days of culture; average, two independent experiments
compound,measurement,setting,value
"O=[N+]([O-])c1ccc(N[C@H]2C(O)O[C@H](CO)[C@@H](O)[C@@H]2O)c2nonc12 (stereo partly drawn) [Compound 2-NBDG, 2-[N-(7-nitrobenz-2-oxa-1,3-diazol-4-yl)amino]-2-deoxy-D-glucose, reference compound]",fluorescence intensity in the presence of CB relative to the absence of CB,[1],30.8% and 36.4%
same,fluorescence intensity in the presence of PHT relative to the absence of PHT,[2],18.6% and 15.7%
